Data from patent US6872557B1, “Gene encoding novel human secretory phospholipase A2” (Shionogi & Co., Ltd., priority 1999, dated 2005).

Tests used:
[1] = target: T1, human IIA type secretory PLA2 (Homo sapiens, UniProt P14555); assay: Inhibition of secretory PLA2 activity, release of 14C-oleic acid from 14C-POPC; format: biochemical; conditions: 14C-POPC substrate, 40° C., 60 min, various concentrations of Indoxam; FIG. 4
T1 sequence (P14555 21-144): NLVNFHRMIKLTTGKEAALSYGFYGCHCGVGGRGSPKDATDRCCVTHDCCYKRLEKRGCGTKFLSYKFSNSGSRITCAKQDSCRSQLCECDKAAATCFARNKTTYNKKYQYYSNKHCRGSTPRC
Experimental: (§1) Inhibitory activity against this novel type of human secretory type PLA2 was determined with Indoxam that is a 1-oxamoylindolidine derivative. It has already been reported that Indoxam inhibits the enzymatic activities of IIA type and IB type secretory type PLA2 (Yokota et al., Biochim. Biophys. Acta (1999) 1438, 213-222). The PLA2 activities were determined by the measurement of the quantity of released ^14C-oleic acid from ^14C-labeled 1-palmitoyl-2-oleoyl-phosphatidylcholine (POPC), according to the Draheim et al.'s method (J. Med. Chem., (1996) 39, 5159-5175). In the solution composed of 50 mM Tris-HCl (pH 8.0), 200 mM NaCl, 2 mM CaCl2, and 1 mg/ml bovine serum albumin, the substrates composed of 1 mM POPC (the mixture of about 100,000 cpm ^14C-POPC and unlabeled POPC) and 3 mM deoxycholic acid were incubated with each secretory PLA2 in the presence of various concentrations of Indoxam at 40° C. for 60 min. Then, the quantity of released ^4C-oleic acid was measured. Purified materials were used in the case with human IB type (2 ng), IIA type (10 ng) and X type (4 ng). Human V type, IID type and the secretory type PLA2 of this invention (IIE type) were prepared from the culture supernatant of CHO cells that stably express them.
(§2) The quantity of released ^14C-oleic acid from ^14C-POPC by each human secretory type PLA2 in the absence of Indoxam was regarded as 100% and the quantity of released ^14C-oleic acid in the presence of each concentration of Indoxam was shown as %.

[2] = target: T2, human IID type secretory PLA2 (Homo sapiens, UniProt Q9UNK4); assay: as above; format: biochemical; conditions: 14C-POPC substrate, 40° C., 60 min, various concentrations of Indoxam; FIG. 4
T2 construct: made in house
T2 sequence (Q9UNK4 21-145): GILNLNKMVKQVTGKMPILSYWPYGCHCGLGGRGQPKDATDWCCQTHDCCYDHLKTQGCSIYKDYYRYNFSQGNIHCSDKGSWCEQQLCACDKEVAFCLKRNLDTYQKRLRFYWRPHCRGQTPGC
Experimental: as §1, §2

[3] = target: T3, human secretory type PLA2 of this invention (IIE type) (Homo sapiens, UniProt Q9NZK7); assay: as above; format: biochemical; conditions: 14C-POPC substrate, 40° C., 60 min, various concentrations of Indoxam; FIG. 4
T3 construct: made in house
T3 sequence (Q9NZK7 20-142): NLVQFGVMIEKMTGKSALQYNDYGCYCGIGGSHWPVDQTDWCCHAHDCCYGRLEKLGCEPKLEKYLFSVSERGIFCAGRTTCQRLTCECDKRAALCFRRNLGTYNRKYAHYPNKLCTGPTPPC
Experimental: as §1, §2

[4] = target: T4, IIA type secretory type PLA2 (Homo sapiens, UniProt P14555); conditions: already reported, Yokota et al., Biochim. Biophys. Acta (1999) 1438, 213-222; cited from earlier work
T4 sequence (P14555 21-144): T1 sequence (P14555 21-144)

[5] = target: IB type secretory type PLA2 (Homo sapiens, UniProt P04054); conditions: already reported, Yokota et al., Biochim. Biophys. Acta (1999) 1438, 213-222; cited from earlier work
Sequence of IB type secretory type PLA2 (P04054 23-148): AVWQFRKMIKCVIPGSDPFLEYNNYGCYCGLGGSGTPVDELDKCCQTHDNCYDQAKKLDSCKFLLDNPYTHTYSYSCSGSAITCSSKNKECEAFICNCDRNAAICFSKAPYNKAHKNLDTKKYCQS

## CCc1c(C(=O)C(N)=O)c2c(OCC(=O)O)cccn2c1Cc1ccccc1-c1ccccc1 [Indoxam]
[1]
  inhibition of enzymatic activity of human IIA type PLA2: strongly inhibits
[2]
  inhibition of enzymatic activity of human IID type PLA2: strongly inhibits
[3]
  inhibition of enzymatic activity of human PLA2 of this invention (IIE type): strongly inhibits
[4]
  inhibition of enzymatic activity of IIA type secretory type PLA2: inhibits
[5]
  inhibition of enzymatic activity of IB type secretory type PLA2: inhibits
